{"source": "patent US10975116B2", "about": "“Methods of treating and preventing gastrointestinal motility disorders using aminosterols” (Enterin, Inc., priority 2013, dated 2021)", "key": {"[1]": {"system": "embryonal rhabdomyosarcoma", "assay": "Oral squalamine in sarcoma with dose finding by GI response, single subject", "type": "in vivo, human", "experimental": "A person was seen because of the recurrence of an embryonal rhabdomyosarcoma. They noticed a mass in their left groin. […] The mass was surgically excised. The patient was then treated with a cocktail of chemotherapeutic agents. Several months later the mass was seen to recur in the left groin. The mass was again excised. Several months later, a tumor was gain noted in the groin, with a large mass present in the left lung.\nAt 300 mg daily, a clear effect was noted, that being mild nausea, 2 hours after dosing, followed by a bowel movement later in the day."}, "[2]": {"system": "mucinous adenocarcinoma (Stage 4b colon cancer)", "assay": "Oral squalamine in Stage 4b colon cancer, single subject", "type": "in vivo, human", "experimental": "A person presented with abdominal distention, pain, and progressive weight loss of several months duration.\nThe individual was begun on a total daily dose of 50 mg of squalamine, administered as 25 mg twice daily, as a powder dispersed in apple sauce. Approximately 6 months after initiation of squalamine treatment the individual was seen again at the hospital due to the chance recognition of a mass on their right kidney. The kidney was surgically removed, and during the procedure the peritoneum explored. […] The mass on the kidney was a benign cyst. Treatment with squalamine continued daily for 5 years. […] The subject died […] of a myocardial infarction."}, "[3]": {"system": "gastrointestinal tract", "assay": "Aminosterol Induced GI Response after oral capsule in a human", "type": "in vivo", "experimental": "Gelatin capsules were prepared for oral administration. Capsules were coated in shellac to prevent their release within the stomach. Furthermore, because squalamine and related aminosterols have antibiotic activity, enteric coating prevents the drug from altering the microbial populations of the stomach. […] Squalamine dilactate powder, 99% pure, or 1436 hydrochloride, 99% pure, was added manually into either Size 0 (for the 200 mg dose) or Size 1 (for the 100 mg dose) gelatin capsules. No excipient was added. The capsules were coated twice in 5% shellac (80% acetone/20% ethanol) and dried before use.\n200 mg of squalamine (lactate salt, excipient free) in a coated gelatin capsule was administered orally to a human in the morning on an empty stomach, with water. Squalamine was synthesized as described in Zasloff et al 2011. Within 2 hours nausea was experienced, lasting about 30 minutes. At 2.5 hours, increased peristalsis (“rumbling gut”) was experienced, lasting several minutes. At about 3 hours, a clear watery discharge of about 200 ml was passed rectally. A second episode occurred at 3.2 hours. Following this episode, bowel sounds quieted. No nausea or discomfort was subsequently experienced. Appetite was near normal. Despite normal feeding, feces were not passed for 2.5 days over which time no discomfort was experienced. The first feces passed after this quiescent period was soft and relatively small considering the intake of food and the time interval. Usual bowel functions resumed by about 4 days after squalamine administration.\n200 mg of 1436 (HCl salt, excipients free) in a gelatin capsule was administered orally to a human in the morning on an empty stomach, with water. […] At 2 hours, about 100 ml of clear watery diarrhea, recurring at 2.75 hours, 3 hours, 3.25 hours, and 4 hours, with progressively lesser volumes of liquid discharged. First bowel movement was passed at 3.5 days, of normal consistency. The subject experienced no abdominal discomfort, bloating, etc over this period. Usual bowel functions resumed by about 4.5 days after administration of Aminosterol 1436. […]\n100 mg of squalamine was orally administered in a capsule as in the first example. […] A period of “bowel quiet” was induced, however, that lasted 2 days, after which normally formed feces were passed."}, "[4]": {"system": "gliobastoma", "assay": "Oral squalamine in brain tumor, single subject", "type": "in vivo, human", "experimental": "A person presented with headache and memory loss. […] The tumor was partially resected surgically, followed by local radiation. The subject was placed on a clinical protocol evaluating everolimus and temozolimide.\nIn mid October 2013, the subject began squalamine capsules with a 100 mg single dose. […] Squalamine treatment continues."}, "[5]": {"system": "intrinsic primary afferent neurons (IPANs) of the colon", "assay": "Patch-clamp of IPANs of the colon, epithelial lining peeled away", "type": "cell-based, mouse", "experimental": "In this Example the same procedure as that described in Example 12 was followed except that the epithelial lining of the colon was peeled away prior to application of squalamine to the lumen. Signals from individual IPANs were recorded. Concentrations of squalamine as low as 1 uM could now stimulate a robust response, similar quantitatively (and qualitatively) to concentrations 30-100 fold higher, when an intact epithelium was present."}, "[6]": {"system": "endometrial cancer", "assay": "Oral squalamine in endometrial cancer, single subject", "type": "in vivo, human", "experimental": "A person presented with abdominal discomfort and the presence of a palpable abdominal mass. […] Surgical removal of the uterus and ovaries was followed by chemotherapy. Subsequently, a large tumor adherent to the distal colon was discovered, along with additional nodes. A colonic resection was performed along with local radiation to the peritoneum.\nThe individual decided to stop all chemotherapy due to progression of the cancer and the adverse reactions previously experienced. The subject began oral squalamine in capsule form in August 2012. […] The dose of squalamine was raised to 100 mg/day in two divided doses. In October 2013, the tumor adjacent to the ureter was irradiated. […] The individual remains on squalamine 100 mg/day. They are in otherwise excellent health."}, "[7]": {"conditions": "single 100 mg oral capsule, empty stomach"}, "[8]": {"conditions": "single 200 mg oral capsule, morning, empty stomach, one human"}}, "data": [{"substance": "squalamine", "values": [{"measurement": "GI response", "setting": "[1]; 100 mg capsules for several days", "value": "without any noticeable GI symptoms"}, {"measurement": "GI response", "setting": "[1]; 200 mg daily", "value": "without any GI response"}, {"measurement": "GI response", "setting": "[1]; 300 mg daily", "value": "mild nausea"}, {"measurement": "mild nausea, time after dosing", "setting": "[1]; 300 mg daily", "value": 2, "unit": "h"}, {"measurement": "tumor status", "setting": "[1]; 2 months post surgery, dosing continued", "value": "no evidence of pulmonary tumors nor evidence of recurrence of any soft tissue tumor in the groin"}, {"measurement": "finding in surgically removed lung tumor", "setting": "[1]; 3 weeks after initiation of dosing", "value": "massive internal hemorrhage due to blood vessel damage"}, {"measurement": "tumor at surgical exploration of the peritoneum", "setting": "[2]; 50 mg/day (25 mg twice daily, powder in apple sauce), approximately 6 months", "value": "No tumor was visible"}, {"measurement": "recurrence", "setting": "[2]; daily treatment for 5 years", "value": "no recurrence of cancer"}, {"measurement": "gastrointestinal response", "setting": "[3]; 200 mg oral capsule in the evening following a large meal, overnight and following morning", "value": "No gastrointestinal response"}, {"measurement": "duration of the Aminosterol-Induced GI Response", "setting": "[3]; following a single 200 mg oral dose", "value": "about 4 days"}, {"measurement": "period of bowel quiet after the watery discharge (Phase III)", "setting": "[3]; following the larger squalamine dose (for example 200 mg)", "value": "2 to 3", "unit": "days"}, {"measurement": "duration of bowel quiet", "setting": "[3]; [7]", "value": 2, "unit": "days"}, {"measurement": "nausea and watery diarrhea", "setting": "[3]; [7]", "value": "Neither nausea, nor watery diarrhea was experienced"}, {"measurement": "duration of nausea", "setting": "[3]; [8]", "value": "about 30 minutes"}, {"measurement": "first clear watery rectal discharge / diarrhea, time after dosing", "setting": "[3]; [8]", "value": "about 3 hours"}, {"measurement": "further episodes of watery discharge, time after dosing", "setting": "[3]; [8]", "value": 3.2, "unit": "h"}, {"measurement": "increased peristalsis, time after dosing", "setting": "[3]; [8]", "value": 2.5, "unit": "h"}, {"measurement": "nausea, time of onset after dosing", "setting": "[3]; [8]", "value": "≤ 2", "unit": "h"}, {"measurement": "usual bowel functions resumed, time after administration", "setting": "[3]; [8]", "value": "about 4 days"}, {"measurement": "volume of first clear watery discharge", "setting": "[3]; [8]", "value": "about 200 ml"}, {"measurement": "time without feces / to first bowel movement after dosing", "setting": "[3]; single 200 mg oral capsule, morning, empty stomach, normal behavior about 1 passage every 24 hours", "value": 2.5, "unit": "days"}, {"measurement": "estimated reduction of small intestinal motility", "setting": "[3]; single 200 mg oral dose, versus normal about 1 passage every 24 hours", "value": 2.5, "unit": "fold"}, {"measurement": "decrease of tumor mass by MRI", "setting": "[4]; 100 mg from mid October 2013, with everolimus and temozolimide protocol, early December 2013", "value": "about 20%"}, {"measurement": "residual tumor volume relative to volume after the surgery/radiation", "setting": "[4]; 100 mg, beginning of February 2014", "value": 60, "unit": "%"}, {"measurement": "lowest concentration stimulating a robust IPAN response", "setting": "[5]; epithelial lining peeled away", "value": 1, "unit": "µM"}, {"measurement": "fold higher concentrations needed for similar response when an intact epithelium was present", "setting": "[5]; intact versus stripped epithelium", "value": "30-100 fold"}, {"measurement": "PET/CT, metastases", "setting": "[6]; 100 mg/day in two divided doses, February 2013 as printed", "value": "no additional metasteses were observed"}, {"measurement": "tumor status", "setting": "[6]; July 2013, before dose raised to 100 mg/day", "value": "a small tumor appeared adjacent to the right ureter, and a second attached to the left descending colon"}, {"measurement": "PET/CT imaging", "setting": "[6]; oral capsules from August 2012, by March 2013", "value": "no evidence of malignancy was visible"}]}]}
